Here are results for ten compounds from ChEMBL document CHEMBL1201862, “PubChem BioAssay data set” (2004).

The structures appear in SMILES notation.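 Protocol summary: plate cells (96-well), add compound at 5 concentrations, incubate 48 h, interpolate endpoints linearly. GI50 = concentration required for 50% inhibition of growth.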 Calls of active or inactive are those of the source. Rule as the data show it: active = GI50 up to about 1.1 µM and inactive = higher. Where a SMILES comes first, the peptide text is derived from it. Bridges are numbered along the chain shown (N, C = ends). [ ]: non-standard residue; d: D form. The star is where a group is joined. ξ: configuration not given here. X28 = O=C(/C=C/C=C/C=C/C=C/C=C/C(=O)*)NC1=C(O)CCC1=O; NMeA = CN[C@@H](C)C(=O)O; ξF = NC(Cc1ccccc1)C(=O)O; ξA = CC(N)C(=O)O

Test systems include A549; BT-549; CCRF-CEM; COLO 205; HL-60; HOP-92; Hs-578T; MDA-MB-231; MDA-MB-435; NCI/ADR-RES; OVCAR-3; OVCAR-8; RPMI-8226; RXF 393; SF-268; SK-OV-3; SW-620; T47D; UACC-257; UO-31.
Holding throughout (test): NCI anticancer screen, dose series, 48 h

As to `NS(=O)(=O)c1ccc(NNC(=O)c2cccc3c(=O)c4ccccc4[nH]c23)cc1`, the GI50 in the test with A549 is > 100 µM (inactive); with BT-549 it was 62.4 µM (inactive); with CCRF-CEM it was 46.1 µM (inactive); in the test with COLO 205 it was > 100 µM (inactive); in the test on HL-60, 35 µM (inactive); with HOP-92, 34.4 µM (inactive). Further, the GI50 in the test on Hs-578T was 72.8 µM (inactive); with MDA-MB-231 it was 51.6 µM (inactive); in the test on MDA-MB-435, 88.1 µM (inactive); in the test with NCI/ADR-RES it was > 100 µM (inactive); with OVCAR-3 it was 56.9 µM (inactive); in the test with OVCAR-8, > 100 µM (inactive). Moreover, the GI50 was 54.7 µM (inactive) with RPMI-8226; 60.4 µM (inactive) in the test with RXF 393; 71.8 µM (inactive) in the test with SF-268; > 100 µM (inactive) in the test with SK-OV-3; 72.6 µM (inactive) in the test with SW-620; 48.4 µM (inactive) in the test on T47D. For the same compound, the GI50 with UACC-257 is > 100 µM (inactive); in the test with UO-31 it was 45.1 µM (inactive).

With `CCC(O)CC1OC2(CCC1C)CC1OC(=O)/C=C\C(C)(O)C(O)C(C)C(O)C(OC3CC(OC)C(O)C(C)O3)C(O)C(C)(O)CCC/C=C/C3CC(C)COC3(O)CC(O2)C1C` (configuration not stated), the GI50 is < 0.0214 µM (active) in the test with A549; 3.66 µM (inactive) with BT-549; 0.23 µM (active) with CCRF-CEM; 0.237 µM (active) in the test on COLO 205; < 0.0199 µM (active) in the test with HL-60; 25.6 µM (inactive) in the test on HOP-92. The GI50 is 12.1 µM (inactive) in the test on Hs-578T; 12 µM (inactive) in the test with MDA-MB-231; 1.91 µM (inactive) in the test with MDA-MB-435; 1.67 µM (inactive) with NCI/ADR-RES; 0.585 µM (active) in the test on OVCAR-3; < 0.0111 µM (active) in the test with OVCAR-8. Also, the GI50 is < 0.01 µM (active) with RPMI-8226; 26.2 µM (inactive) in the test with RXF 393; 17.8 µM (inactive) in the test on SF-268; 26.6 µM (inactive) in the test on SK-OV-3; 14.8 µM (inactive) in the test on SW-620; < 0.0107 µM (active) in the test on T47D. Moreover, the GI50 in the test on UACC-257 was < 0.01 µM (active); with UO-31 it was 11.2 µM (inactive).

On to `CCOc1ccc(NC(=O)C(=O)C(/C(=N/N)C(=O)OC)c2nc3ccc([N+](=O)[O-])cc3nc2O)cc1` (configuration not stated), for which the GI50 in the test with A549, in the test on BT-549, in the test with CCRF-CEM, with COLO 205, with HOP-92 and with Hs-578T was > 100 µM (inactive) throughout. Also, the GI50 with MDA-MB-231 was > 100 µM (inactive); in the test on MDA-MB-435 it was > 100 µM (inactive); with NCI/ADR-RES, > 100 µM (inactive); with OVCAR-3, > 100 µM (inactive); in the test with OVCAR-8 it was > 100 µM (inactive); in the test on RPMI-8226 it was 24.2 µM (inactive). The GI50 in the test with RXF 393 is 36.1 µM (inactive); in the test with SF-268, > 100 µM (inactive); in the test with SK-OV-3, > 100 µM (inactive); with SW-620, > 100 µM (inactive); in the test on T47D, > 100 µM (inactive); with UACC-257, > 100 µM (inactive). Besides, the GI50 with UO-31 is > 100 µM (inactive).

Regarding `CC1=NN=C(N)N/C1=C\C(Sc1ccc(Cl)cc1)c1ccc([N+](=O)[O-])cc1` (configuration not stated), the GI50 is > 100 µM (inactive) in the test on A549; 80 µM (inactive) in the test on BT-549; 27.5 µM (inactive) in the test with CCRF-CEM; > 100 µM (inactive) with COLO 205; 32.8 µM (inactive) in the test on HL-60; > 100 µM (inactive) with HOP-92. Moreover, the GI50 in the test with Hs-578T was > 100 µM (inactive); with MDA-MB-231, > 100 µM (inactive); in the test on MDA-MB-435, 83.9 µM (inactive); with NCI/ADR-RES it was > 100 µM (inactive); in the test with OVCAR-8, > 100 µM (inactive); in the test on RPMI-8226, 35.6 µM (inactive). Moreover, the GI50 in the test on RXF 393 is > 100 µM (inactive); with SF-268 it was 47.4 µM (inactive); in the test with SK-OV-3, > 100 µM (inactive); with SW-620, 85.3 µM (inactive); in the test on T47D, > 100 µM (inactive); with UACC-257, 91.4 µM (inactive). For the same compound, the GI50 in the test on UO-31 is 28.3 µM (inactive).

As to `C=C(C)[C@@H]1CCC2=C[C@H](C/C(C)=C\C3=CC(C)=C(O3)[C@H]1O)OC2=O`, the GI50 was 88.7 µM (inactive) in the test on A549; > 100 µM (inactive) in the test with BT-549; > 100 µM (inactive) in the test with CCRF-CEM; > 100 µM (inactive) in the test with COLO 205; > 100 µM (inactive) in the test on HL-60; 56.4 µM (inactive) in the test on HOP-92. The GI50 in the test on Hs-578T is 65.5 µM (inactive); with MDA-MB-231, 25.8 µM (inactive); in the test on MDA-MB-435 it was > 100 µM (inactive); with NCI/ADR-RES, > 100 µM (inactive); in the test with OVCAR-3, > 100 µM (inactive); in the test on OVCAR-8, 73.8 µM (inactive). In addition, the GI50 in the test with RPMI-8226 is > 100 µM (inactive); in the test with RXF 393, 35.6 µM (inactive); with SF-268, > 100 µM (inactive); in the test with SW-620, > 100 µM (inactive); in the test with T47D, 41.9 µM (inactive); with UACC-257, > 100 µM (inactive). Further, in the test with UO-31, the GI50 is > 100 µM (inactive).

Consider `Cc1c(-c2ccccc2)cc(O)c2nc3ccccc3n12`, for which the GI50 in the test with A549 is 14.5 µM (inactive); in the test with BT-549, 12.6 µM (inactive); in the test with CCRF-CEM, 17 µM (inactive); in the test on COLO 205, > 100 µM (inactive); in the test on HL-60, 4.97 µM (inactive); with HOP-92, 10.2 µM (inactive). The GI50 is 55.1 µM (inactive) with Hs-578T; 5.61 µM (inactive) in the test on MDA-MB-231; 13.7 µM (inactive) with MDA-MB-435; 7 µM (inactive) in the test with NCI/ADR-RES; > 100 µM (inactive) with OVCAR-3; > 100 µM (inactive) in the test with OVCAR-8. Moreover, the GI50 in the test with RPMI-8226 is 7.43 µM (inactive); in the test with RXF 393, 83.6 µM (inactive); in the test with SF-268, > 10 µM (inactive); in the test with SW-620, 20.7 µM (inactive); with T47D, > 100 µM (inactive); in the test on UACC-257 it was > 100 µM (inactive). In the test with UO-31, the GI50 was 9.25 µM (inactive).

For the compound `Cc1ccc(C)c(COCCOCn2ccc(N)nc2=O)c1`, the GI50 with A549 is > 100 µM (inactive); in the test with BT-549, > 100 µM (inactive); with CCRF-CEM, 0.785 µM (active); in the test with COLO 205 it was > 100 µM (inactive); in the test with HL-60 it was 18.5 µM (inactive); with HOP-92, > 100 µM (inactive). In addition, the GI50 in the test with Hs-578T, with MDA-MB-231, with MDA-MB-435, with NCI/ADR-RES, with OVCAR-3 and in the test with OVCAR-8 was > 100 µM (inactive) in each case. For the same compound, the GI50 in the test with RXF 393, in the test on SF-268, in the test on SK-OV-3, in the test on SW-620, in the test on T47D and with UACC-257 was > 100 µM (inactive) in each case. Besides, in the test with UO-31, the GI50 was > 100 µM (inactive).

On to `O=c1[nH]nc(-c2ccccc2)n1-c1ccncc1`, for which the GI50 in the test with A549, with BT-549, in the test on CCRF-CEM, in the test with COLO 205, in the test with HL-60 and with HOP-92 was > 100 µM (inactive) each time. Also, the GI50 with Hs-578T, with MDA-MB-231, in the test with MDA-MB-435, in the test with NCI/ADR-RES, in the test on OVCAR-3 and in the test on OVCAR-8 was > 100 µM (inactive) in each case. Moreover, the GI50 in the test on RPMI-8226, in the test on RXF 393, with SF-268, with SW-620, with T47D and with UACC-257 was > 100 µM (inactive) throughout. Moreover, the GI50 in the test with UO-31 was > 100 µM (inactive).

`OC(c1nc2ccccc2[nH]1)C(O)C(O)C(O)c1nc2ccccc2[nH]1` (configuration not stated): the GI50 is > 100 µM (inactive) in the test with A549; > 100 µM (inactive) in the test with BT-549; > 100 µM (inactive) with COLO 205; > 100 µM (inactive) with HL-60; > 100 µM (inactive) in the test on HOP-92; 91.4 µM (inactive) in the test on Hs-578T. Besides, the GI50 in the test with MDA-MB-231, in the test on MDA-MB-435, in the test with NCI/ADR-RES, in the test on OVCAR-3, in the test on OVCAR-8 and in the test with RPMI-8226 was > 100 µM (inactive) each time. Also, the GI50 in the test with RXF 393, in the test on SF-268, in the test with SK-OV-3, in the test with SW-620, with T47D and in the test on UACC-257 was > 100 µM (inactive) throughout. Besides, the GI50 in the test on UO-31 is > 100 µM (inactive).

For the compound `CC1NC(=O)[C@H](C)N(C)C(=O)[C@@H]2CCCN2C(=O)[C@@H](NC(=O)C(Cc2ccccc2)NC(=O)/C=C/C=C/C=C/C=C/C=C/C(=O)NC2=C(O)CCC2=O)COC(=O)[C@@H]2CCCN2C1=O` (some centres not stated) (X28-[ξF]SP[NMeA][ξA]P; ester 2-C), the GI50 in the test on A549 was > 100 µM (inactive); with BT-549 it was > 100 µM (inactive); with CCRF-CEM, > 100 µM (inactive); in the test with COLO 205, > 100 µM (inactive); in the test with HL-60, > 100 µM (inactive); in the test on HOP-92, 78.2 µM (inactive). Moreover, the GI50 with Hs-578T was 59.2 µM (inactive); in the test with MDA-MB-231 it was 22.7 µM (inactive); with MDA-MB-435 it was > 100 µM (inactive); in the test with NCI/ADR-RES, > 100 µM (inactive); in the test with OVCAR-3, > 100 µM (inactive); in the test on RPMI-8226 it was > 100 µM (inactive). The GI50 is 35.5 µM (inactive) in the test on RXF 393; > 100 µM (inactive) with SF-268; > 100 µM (inactive) in the test on SK-OV-3; > 100 µM (inactive) in the test on SW-620; > 100 µM (inactive) with T47D; > 100 µM (inactive) in the test on UACC-257. Also, the GI50 in the test with UO-31 is 29.2 µM (inactive).
